Measured values taken from article PMC7347136 (PLoS ONE, 2020).

Experiments:
Assay in all cases: Carna kinase panel screen
Format in all cases: biochemical
Details in all cases: read-out: % Inhibition ± SD
[1] = target: T1, CaMK4 (Homo sapiens, UniProt Q16566)
T1 construct: purchased Carna Biosciences
Description: (§1) IC50 values were determined from a 10-point concentration curve using ATP concentrations approximating Km values. […] The percentage inhibition of each test solution was calculated, which allowed the IC50 value to be determined from concentration versus percentage inhibition curves by fitting to a four parameter logistic curve.

[2] = target: T2, EphA5 (Homo sapiens, UniProt P54756)
T2 construct: purchased Carna Biosciences
Description: as §1

[3] = target: T3, ITK (Homo sapiens, UniProt Q08881)
T3 construct: purchased Carna Biosciences
Description: as §1

[4] = target: T4, TSSK1 (Homo sapiens, UniProt Q9BXA7)
T4 construct: purchased Carna Biosciences
Description: as §1

[5] = target: T5, NuaK1 (Homo sapiens, UniProt O60285)
T5 construct: purchased Carna Biosciences
Description: as §1

[6] = target: T6, IKKb (Homo sapiens, UniProt O14920)
T6 construct: purchased Carna Biosciences
Description: as §1

[7] = target: T7, EphA7 (Homo sapiens, UniProt Q15375)
T7 construct: purchased Carna Biosciences
Description: as §1

[8] = target: T8, EGFR[L858R] (Homo sapiens, UniProt P00533, L858R)
T8 construct: purchased Carna Biosciences
Description: as §1

[9] = target: T9, MAP2K3 (Homo sapiens, UniProt P46734)
T9 construct: purchased Carna Biosciences
Description: as §1

[10] = target: T10, SGK3 (Homo sapiens, UniProt Q96BR1)
T10 construct: purchased Carna Biosciences
Description: as §1

[11] = target: T11, DCAMKL2 (Homo sapiens, UniProt Q8N568)
T11 construct: purchased Carna Biosciences
Description: as §1

[12] = target: T12, MAPKAPK3 (Homo sapiens, UniProt Q16644)
T12 construct: purchased Carna Biosciences
Description: as §1

[13] = target: T13, FYN (Homo sapiens, UniProt P06241)
T13 construct: purchased Carna Biosciences
Description: as §1

[14] = target: T14, BLK (Homo sapiens, UniProt P51451)
T14 construct: purchased Carna Biosciences
Description: as §1

[15] = target: T15, LIMK1 (Homo sapiens, UniProt P53667)
T15 construct: purchased Carna Biosciences
Description: as §1

[16] = target: T16, MAP2K6 (Homo sapiens, UniProt P52564)
T16 construct: purchased Carna Biosciences
Description: as §1

[17] = target: T17, skMLCK (Homo sapiens, UniProt Q9H1R3)
T17 construct: purchased Carna Biosciences
Description: as §1

[18] = target: T18, LOK (Homo sapiens, UniProt O94804)
T18 construct: purchased Carna Biosciences
Description: as §1

[19] = target: T19, CRIK (Homo sapiens, UniProt O14578)
T19 construct: purchased Carna Biosciences
Description: as §1

[20] = target: T20, BMPR1A (Homo sapiens, UniProt P36894)
T20 construct: purchased Carna Biosciences
Description: as §1

[21] = target: T21, PIM2 (Homo sapiens, UniProt Q9P1W9)
T21 construct: purchased Carna Biosciences
Description: as §1

[22] = target: T22, EphB2 (Homo sapiens, UniProt P29323)
T22 construct: purchased Carna Biosciences
Description: as §1

[23] = target: T23, JAK1 (Homo sapiens, UniProt P23458)
T23 construct: purchased Carna Biosciences
Description: as §1

[24] = target: T24, PKD1 (Homo sapiens, UniProt Q15139)
T24 construct: purchased Carna Biosciences
Description: as §1

[25] = target: T25, AurC (Homo sapiens, UniProt Q9UQB9)
T25 construct: purchased Carna Biosciences
Description: as §1

[26] = target: T26, RSK1 (Homo sapiens, UniProt Q15418)
T26 construct: purchased Carna Biosciences
Description: as §1

[27] = target: T27, CK1d (Homo sapiens, UniProt P48730)
T27 construct: purchased Carna Biosciences
Description: as §1

[28] = target: T28, KIT (Homo sapiens, UniProt P10721)
T28 construct: purchased Carna Biosciences
Description: as §1

[29] = target: T29, LCK (Homo sapiens, UniProt P06239)
T29 construct: purchased Carna Biosciences
Description: as §1

[30] = target: T30, CDK9 (Homo sapiens, UniProt P50750)
T30 construct: purchased Carna Biosciences
Description: as §1

[31] = target: T31, AurA (Homo sapiens, UniProt O14965)
T31 construct: purchased Carna Biosciences
Description: as §1

[32] = target: T32, AKT3 (Homo sapiens, UniProt Q9Y243)
T32 construct: purchased Carna Biosciences
Description: as §1

[33] = target: T33, CLK2 (Homo sapiens, UniProt P49760)
T33 construct: purchased Carna Biosciences
Description: as §1

[34] = target: T34, TYK2 (Homo sapiens, UniProt P29597)
T34 construct: purchased Carna Biosciences
Description: as §1

[35] = target: T35, CDK6 (Homo sapiens, UniProt Q00534)
T35 construct: purchased Carna Biosciences
Description: as §1

[36] = target: T36, MNK2 (Homo sapiens, UniProt Q9HBH9)
T36 construct: purchased Carna Biosciences
Description: as §1

[37] = target: T37, JNK1 (Homo sapiens, UniProt P45983)
T37 construct: purchased Carna Biosciences
Description: as §1

[38] = target: T38, PKCb2 (Homo sapiens, UniProt P05771)
T38 construct: purchased Carna Biosciences
Description: as §1

[39] = target: T39, GSK3b (Homo sapiens, UniProt P49841)
T39 construct: purchased Carna Biosciences
Description: as §1

[40] = target: T40, MST3 (Homo sapiens, UniProt Q9Y6E0)
T40 construct: purchased Carna Biosciences
Description: as §1

[41] = target: T41, MAP3K4 (Homo sapiens, UniProt Q9Y6R4)
T41 construct: purchased Carna Biosciences
Description: as §1

[42] = target: T42, MSK1 (Homo sapiens, UniProt O75582)
T42 construct: purchased Carna Biosciences
Description: as §1

[43] = target: T43, MET[Y1235D] (Homo sapiens, UniProt P08581, Y1235D)
T43 construct: purchased Carna Biosciences
Description: as §1

T14 sequence (P51451 whole entry): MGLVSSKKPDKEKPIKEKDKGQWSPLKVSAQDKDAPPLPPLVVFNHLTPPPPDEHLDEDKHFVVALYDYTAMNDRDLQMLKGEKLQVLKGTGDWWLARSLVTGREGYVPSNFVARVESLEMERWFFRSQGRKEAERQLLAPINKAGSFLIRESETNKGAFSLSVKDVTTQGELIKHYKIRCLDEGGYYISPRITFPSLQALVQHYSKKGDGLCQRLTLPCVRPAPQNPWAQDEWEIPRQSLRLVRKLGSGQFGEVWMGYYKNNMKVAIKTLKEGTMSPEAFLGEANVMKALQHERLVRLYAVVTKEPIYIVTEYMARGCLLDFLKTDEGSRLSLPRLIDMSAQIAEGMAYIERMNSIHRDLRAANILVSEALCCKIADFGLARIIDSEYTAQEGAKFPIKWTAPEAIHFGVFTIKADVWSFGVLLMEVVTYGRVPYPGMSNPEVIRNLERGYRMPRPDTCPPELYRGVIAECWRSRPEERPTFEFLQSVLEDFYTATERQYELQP
T2 sequence (P54756 25-1037): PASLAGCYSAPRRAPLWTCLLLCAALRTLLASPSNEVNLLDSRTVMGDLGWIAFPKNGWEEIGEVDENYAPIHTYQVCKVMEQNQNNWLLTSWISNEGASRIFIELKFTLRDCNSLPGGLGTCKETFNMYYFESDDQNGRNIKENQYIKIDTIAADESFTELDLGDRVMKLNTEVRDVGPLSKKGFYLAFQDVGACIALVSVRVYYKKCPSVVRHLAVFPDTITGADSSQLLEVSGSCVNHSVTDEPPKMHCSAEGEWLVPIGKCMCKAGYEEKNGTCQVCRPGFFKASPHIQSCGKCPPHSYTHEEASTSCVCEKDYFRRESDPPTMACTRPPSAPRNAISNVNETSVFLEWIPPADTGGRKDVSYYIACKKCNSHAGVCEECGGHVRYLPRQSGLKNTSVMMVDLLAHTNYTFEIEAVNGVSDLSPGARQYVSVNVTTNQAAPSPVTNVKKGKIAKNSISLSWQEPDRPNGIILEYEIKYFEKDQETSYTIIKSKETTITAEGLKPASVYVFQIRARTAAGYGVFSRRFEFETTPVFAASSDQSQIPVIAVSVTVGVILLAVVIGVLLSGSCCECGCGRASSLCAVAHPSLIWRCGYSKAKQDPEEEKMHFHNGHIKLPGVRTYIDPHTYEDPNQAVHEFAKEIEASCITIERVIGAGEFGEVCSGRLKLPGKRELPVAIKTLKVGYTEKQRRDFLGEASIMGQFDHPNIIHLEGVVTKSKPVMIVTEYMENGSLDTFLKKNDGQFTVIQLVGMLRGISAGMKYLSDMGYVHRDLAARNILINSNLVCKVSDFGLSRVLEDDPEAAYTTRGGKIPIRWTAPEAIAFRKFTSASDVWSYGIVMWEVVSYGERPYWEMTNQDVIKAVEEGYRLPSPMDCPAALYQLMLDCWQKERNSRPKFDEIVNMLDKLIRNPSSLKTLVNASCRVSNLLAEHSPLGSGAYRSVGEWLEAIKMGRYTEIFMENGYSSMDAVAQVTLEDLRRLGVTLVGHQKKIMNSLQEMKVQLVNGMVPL
T20 sequence (P36894 24-532): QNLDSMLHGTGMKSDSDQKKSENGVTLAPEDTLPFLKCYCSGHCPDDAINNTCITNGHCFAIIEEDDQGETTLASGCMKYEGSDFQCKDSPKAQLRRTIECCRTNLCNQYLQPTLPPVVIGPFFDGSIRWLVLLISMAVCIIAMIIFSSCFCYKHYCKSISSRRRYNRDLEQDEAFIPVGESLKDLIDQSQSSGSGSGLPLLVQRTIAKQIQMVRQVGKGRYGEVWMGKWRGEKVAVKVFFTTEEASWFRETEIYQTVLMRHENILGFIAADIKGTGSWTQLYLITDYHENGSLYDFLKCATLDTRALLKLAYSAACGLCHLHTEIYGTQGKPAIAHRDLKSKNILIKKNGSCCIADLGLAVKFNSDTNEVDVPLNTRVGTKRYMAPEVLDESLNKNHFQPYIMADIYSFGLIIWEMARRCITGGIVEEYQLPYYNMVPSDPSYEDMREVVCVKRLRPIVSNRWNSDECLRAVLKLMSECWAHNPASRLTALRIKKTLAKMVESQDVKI
T41 sequence (Q9Y6R4 whole entry): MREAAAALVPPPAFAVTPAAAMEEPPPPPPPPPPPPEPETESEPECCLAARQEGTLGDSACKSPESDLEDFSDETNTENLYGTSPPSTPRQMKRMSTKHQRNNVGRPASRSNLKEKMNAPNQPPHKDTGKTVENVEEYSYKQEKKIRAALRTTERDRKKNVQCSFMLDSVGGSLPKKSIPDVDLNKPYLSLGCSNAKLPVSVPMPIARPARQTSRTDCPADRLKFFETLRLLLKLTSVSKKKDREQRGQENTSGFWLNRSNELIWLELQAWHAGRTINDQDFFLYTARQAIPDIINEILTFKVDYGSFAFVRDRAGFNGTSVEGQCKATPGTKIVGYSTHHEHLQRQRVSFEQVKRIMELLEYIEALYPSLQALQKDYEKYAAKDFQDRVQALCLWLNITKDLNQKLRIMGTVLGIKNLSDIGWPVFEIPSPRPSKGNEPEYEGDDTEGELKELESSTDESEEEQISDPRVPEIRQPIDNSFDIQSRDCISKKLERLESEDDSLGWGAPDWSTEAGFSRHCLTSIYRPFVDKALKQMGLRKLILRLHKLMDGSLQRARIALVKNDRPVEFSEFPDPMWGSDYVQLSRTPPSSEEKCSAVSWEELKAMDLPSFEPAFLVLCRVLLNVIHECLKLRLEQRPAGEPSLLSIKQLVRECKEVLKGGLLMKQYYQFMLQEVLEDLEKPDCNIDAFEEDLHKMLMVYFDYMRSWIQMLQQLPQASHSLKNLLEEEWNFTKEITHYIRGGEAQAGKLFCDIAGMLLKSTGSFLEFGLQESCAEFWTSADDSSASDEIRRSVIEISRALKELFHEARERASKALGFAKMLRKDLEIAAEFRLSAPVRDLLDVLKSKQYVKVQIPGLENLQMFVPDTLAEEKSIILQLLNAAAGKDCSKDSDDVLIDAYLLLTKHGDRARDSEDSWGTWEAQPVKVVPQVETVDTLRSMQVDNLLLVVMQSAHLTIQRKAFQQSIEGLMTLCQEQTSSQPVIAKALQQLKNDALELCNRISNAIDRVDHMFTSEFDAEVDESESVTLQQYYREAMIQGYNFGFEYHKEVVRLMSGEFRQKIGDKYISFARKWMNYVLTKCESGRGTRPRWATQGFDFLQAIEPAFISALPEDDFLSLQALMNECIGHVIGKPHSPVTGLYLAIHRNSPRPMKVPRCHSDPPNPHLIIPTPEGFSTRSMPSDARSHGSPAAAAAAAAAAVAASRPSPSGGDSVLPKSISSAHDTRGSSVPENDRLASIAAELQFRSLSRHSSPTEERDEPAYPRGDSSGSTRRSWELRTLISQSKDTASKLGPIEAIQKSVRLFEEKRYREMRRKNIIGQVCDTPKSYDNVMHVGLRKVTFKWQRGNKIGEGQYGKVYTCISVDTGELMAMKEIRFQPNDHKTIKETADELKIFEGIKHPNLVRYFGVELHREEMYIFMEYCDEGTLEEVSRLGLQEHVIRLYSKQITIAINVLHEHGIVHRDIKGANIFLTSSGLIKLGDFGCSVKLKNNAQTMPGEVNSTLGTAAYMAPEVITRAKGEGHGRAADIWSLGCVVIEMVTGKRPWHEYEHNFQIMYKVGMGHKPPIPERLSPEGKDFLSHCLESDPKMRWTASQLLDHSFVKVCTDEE
T11 sequence (Q8N568 whole entry): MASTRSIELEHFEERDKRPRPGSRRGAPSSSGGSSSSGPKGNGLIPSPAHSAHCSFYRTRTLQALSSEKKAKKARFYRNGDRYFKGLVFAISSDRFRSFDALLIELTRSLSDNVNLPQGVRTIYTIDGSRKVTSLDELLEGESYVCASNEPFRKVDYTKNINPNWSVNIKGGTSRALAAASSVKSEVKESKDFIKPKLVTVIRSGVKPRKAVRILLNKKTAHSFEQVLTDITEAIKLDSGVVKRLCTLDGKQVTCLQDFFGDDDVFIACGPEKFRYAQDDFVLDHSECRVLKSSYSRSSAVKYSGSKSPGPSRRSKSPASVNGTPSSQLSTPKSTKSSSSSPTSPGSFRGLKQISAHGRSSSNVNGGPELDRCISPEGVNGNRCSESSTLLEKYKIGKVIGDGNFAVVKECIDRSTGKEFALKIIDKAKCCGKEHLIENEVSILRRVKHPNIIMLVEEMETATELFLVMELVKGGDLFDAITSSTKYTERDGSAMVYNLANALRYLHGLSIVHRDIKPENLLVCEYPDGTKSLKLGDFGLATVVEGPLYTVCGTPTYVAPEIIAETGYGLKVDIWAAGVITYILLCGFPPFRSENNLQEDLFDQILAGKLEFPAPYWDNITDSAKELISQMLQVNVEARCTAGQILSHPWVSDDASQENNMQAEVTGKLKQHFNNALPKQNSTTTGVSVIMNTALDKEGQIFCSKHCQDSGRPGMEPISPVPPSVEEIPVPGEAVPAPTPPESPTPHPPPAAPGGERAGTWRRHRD
T33 sequence (P49760 whole entry): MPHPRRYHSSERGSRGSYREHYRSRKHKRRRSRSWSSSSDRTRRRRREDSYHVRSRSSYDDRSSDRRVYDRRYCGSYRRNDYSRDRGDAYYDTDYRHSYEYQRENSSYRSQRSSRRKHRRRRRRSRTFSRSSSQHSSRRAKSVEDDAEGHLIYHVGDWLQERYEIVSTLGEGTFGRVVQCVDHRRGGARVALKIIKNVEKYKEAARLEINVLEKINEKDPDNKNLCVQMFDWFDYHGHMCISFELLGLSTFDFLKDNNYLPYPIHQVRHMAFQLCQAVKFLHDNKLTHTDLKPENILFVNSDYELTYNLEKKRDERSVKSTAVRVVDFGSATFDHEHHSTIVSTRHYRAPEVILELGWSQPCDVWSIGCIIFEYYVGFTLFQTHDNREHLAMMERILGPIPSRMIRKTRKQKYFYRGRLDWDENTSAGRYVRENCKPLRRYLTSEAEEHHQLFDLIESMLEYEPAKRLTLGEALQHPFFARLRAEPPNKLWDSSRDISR

CC[C@H](Nc1nc(NCc2cnc(C)cc2C)c2ncn(C(C)C)c2n1)[C@@H](C)O [Fadraciclib, 2-pentanol, 3-[[6-[[(4,6-dimethyl-3-pyridinyl)methyl]amino]-9-(1-methylethyl)-9Hpurin-2-yl]amino]-, (2R,3S)]
inhibition at 1 µM [1]: -4.8 ± 0.1% | inhibition at 1 µM [2]: 4.9 ± 0.2% | inhibition at 1 µM [3]: 2.3 ± 0.1% | inhibition at 1 µM [4]: 16 ± 0.5% | inhibition at 1 µM [5]: -2.5% | inhibition at 1 µM [6]: 0.2% | inhibition at 1 µM [7]: 6 ± 0.3% | inhibition at 1 µM [8]: 1.7% | inhibition at 1 µM [9]: -12.3 ± 0.3% | inhibition at 1 µM [10]: 6.2 ± 0.1% | inhibition at 1 µM [11]: -12.4 ± 0.1% | inhibition at 1 µM [12]: -6.1 ± 0.3% | inhibition at 1 µM [13]: 7.4 ± 0.3% | inhibition at 1 µM [14]: -3.6% | inhibition at 1 µM [15]: 12.3 ± 0.4% | inhibition at 1 µM [16]: 0.7% | inhibition at 1 µM [17]: -9.8 ± 1.1% | inhibition at 1 µM [18]: -23.8 ± 0.3% | inhibition at 1 µM [19]: -1.2% | inhibition at 1 µM [20]: 2.2% | inhibition at 1 µM [21]: 2.9 ± 0.2% | inhibition at 1 µM [22]: 5 ± 0.2% | inhibition at 1 µM [23]: -3.1% | inhibition at 1 µM [24]: 12.4 ± 0.5% | inhibition at 1 µM [25]: 3 ± 0.2% | inhibition at 1 µM [26]: 5.1% | inhibition at 1 µM [27]: 13.8 ± 0.4% | inhibition at 1 µM [28]: -2.4 ± 0.1% | inhibition at 1 µM [29]: -7.3 ± 0.1% | inhibition at 1 µM [30]: 96.6 ± 3.2% | inhibition at 1 µM [31]: -16.2 ± 0.4% | inhibition at 1 µM [32]: 2.4 ± 0.3% | inhibition at 1 µM [33]: 87.8 ± 2% | inhibition at 1 µM [34]: -0.1% | inhibition at 1 µM [35]: 27 ± 0.9% | inhibition at 1 µM [36]: -4.3 ± 0.1% | inhibition at 1 µM [37]: -13.5 ± 1.3% | inhibition at 1 µM [38]: -14.3 ± 0.1% | inhibition at 1 µM [39]: 23.8 ± 1% | inhibition at 1 µM [40]: -16.4 ± 0.7% | inhibition at 1 µM [41]: 7.6 ± 0.1% | inhibition at 1 µM [42]: 5.5 ± 0.4% | inhibition at 1 µM [43]: 2.4 ± 0.1%
